# Laboratory results reported in paper PMC6470533, “Structure–Activity Study, Characterization, and Mechanism of Action of an Antimicrobial Peptoid D2 and Its D- and L-Peptide Analogues” (Molecules, 2019).
# Non-standard residues stand in square brackets, D forms with d. Residues, ends and D or L forms follow the SMILES beside them. d1Nal = N[C@H](Cc1cccc2ccccc12)C(=O)O; dNle = CCCC[C@@H](N)C(=O)O
# Key:
# [1] = test system: Methicillin sensitive Staphylococcus pseudintermedius (26916); assay type: cell-based; settings: 18 h
# [2] = test system: Methicillin resistant Staphylococcus pseudintermedius, (C22963); assay type: cell-based; settings: 18 h
# [3] = test system: Staphylococcus aureus (ATCC 29213); assay type: cell-based; settings: ATCC 29213, 18 h
# [4] = test system: Enterococcus faecium, 30951; assay type: cell-based; settings: 30951, 18 h
# Procedure: (§1) To explore the antimicrobial activity of the library of peptides and peptidomimetics, they were tested against Acinetobacter baumannii, Corynebacterium auriscanis, Escherichia coli, Enterococcus faecalis, Enterococcus faecium, Klebsiella pneumonia, Proteus mirabilis, and Pseudomonas aeruginosa. Bacteria grown on agar plates for 18 h at 37 °C were diluted to ~1 × 10^8 CFU/mL in Mueller–Hinton broth (MHB). Two-fold serial dilutions of peptides and peptidomimetics in MHB II were inoculated with bacteria to achieve a final concentration of 5 × 10^5 CFU/mL in polypropylene 96 U-well microtiter plates (Almeco, Esbjerg, Denmark), followed by incubation at 37 °C in ambient air for 18 h. The MIC values were determined as the lowest concentration showing no visible bacterial growth. Experiments were performed twice (in technical triplicates) on two different days.
# [5] = test system: Pseudomonas aeruginosa (ATCC 27853); assay type: cell-based; settings: ATCC 27853, 18 h
# Procedure: as §1
# E. coli, 30235 = assay type: cell-based, Escherichia coli; settings: 30235, 18 h
# Procedure: as §1
# [6] = test system: P. aeruginosa isolates from canine infections; assay type: cell-based, Pseudomonas aeruginosa; settings: isolates from canine infections, 18 h
# Procedure: as §1
# [7] = test system: DNA synthesis in MRSP E104; assay: Macromolecule biosynthesis assay, DNA (3H-thymidine); assay type: cell-based, Staphylococcus pseudintermedius; settings: 0.5× MIC, 20 min incubation, MRSP E104, 3H-thymidine; means of two experiments
# Procedure: (§2) The effect on DNA and cell wall synthesis was investigated after 20 min of incubation of MRSP E104 with the precursors ^3H-thymidine and ^3H-glucosamine hydrochloride, respectively, as previously reported by Ling et al.. Following macromolecule precipitation, radioactivity was counted using scintillation fluid. Incorporation of ^3H- or ^14C-labeled thymidine has been used to investigate DNA replication and transcriptional activity during the cell cycle; ^3H-glucosamine hydrochloride has been used in a mode of action study for the antimicrobial peptide plectasin, which targets the cell wall precursor lipid II [44].
# (§3) Macromolecules (DNA and cell wall) biosynthesis rates were measured using strain MRSP E104 following a protocol adapted from Ling et al.. Briefly, overnight culture of E104 was diluted 1:100 in MHB and freshly grown up to OD 0.2 at 600 nm. Grown cells were pelleted down by centrifugation and then resuspended in fresh MHB medium followed by incubation for 20 min on a dry heat-bath with D2 or analogues or nisin and radiolabeled precursor: (50 µCi) ^3H-Thymidine (PerkinElmer) and (5 µCi) ^3H-glucosamine hydrochloride per mL for DNA and cell wall, respectively. A positive control without antimicrobials was maintained that corresponds to 100% synthesis rate. After 20 min of incubation, samples were precipitated with equal volume of cold 30% trichloroactic acid (TCA Sigma, Søborg, Denmark) on ice. After 15 to 30 min of incubation on ice, precipitates were filtered on a membrane filter and subsequently washed twice with cold 15% TCA and twice with cold water using a vacuum manifold. Next, filters were air dried overnight and then moved to 10 mL scintillation vials. Finally, 3 mL scintillation fluid was added to each vial and ^3H count was taken in Beckman Coulter LS6500 liquid scintillation counter for 1 min. The radioactive counts of the control samples with no antimicrobial exposure were considered to have 100% precursor incorporation and macromolecule synthesis. The percentage rates of macromolecule synthesis in the antimicrobial-exposed samples were calculated compared to control. Each experiment was performed twice with a technical replicate, and the average rates of synthesis were plotted.
# [8] = test system: cell wall synthesis in MRSP E104; assay: Macromolecule biosynthesis assay, cell wall (3H-glucosamine hydrochloride); assay type: cell-based, Staphylococcus pseudintermedius; settings: 0.5× MIC, 20 min incubation, MRSP E104, 3H-glucosamine hydrochloride; means of two experiments
# Procedure: as §2, §3
# MRSP ST71 strain E104 = assay: Growth curve analysis (BioScreen); assay type: cell-based, Staphylococcus pseudintermedius; settings: at the MIC, MRSP E104, OD600, 6 h, 37 °C
# Procedure: First, we performed growth curve analysis using the well-characterized MRSP ST71 strain E104, which is resistant to a number of antibiotics. […] A well-characterized antimicrobial peptide, nisin, was used as control. […] Increased concentrations of nisin inhibited proportionally the growth of E104, both at sub-MIC and MIC concentrations.
# The effect of D2 or analogues or nisin on the growth of MRSP strain E104 was evaluated using BioScreen (Oy Growth Curves Ab LTd, Helsinki, Finland). Freshly grown culture of E104 was diluted to OD 0.2 at 600 nm, supplemented with increased concentration of antimicrobials and distributed in a 100 well honeycomb micro-plate with volume 100 μL. The plate was incubated for 6 h at 37 °C with continuous shaking. The OD600 of each micro-culture was measured and recorded every 15 min after a 5 s pause of shaking in automatic mode. Recorded OD was plotted against time to prepare the growth curves. Experiment was performed twice and one representative result was presented.
# S. aureus = assay: MIC against canine clinical S. aureus strains (Table S2); assay type: cell-based, Staphylococcus aureus
# Procedure: (§4) Similarly, in this study, to assess the degree of selectivity for S. pseudintermedius, D2 and D2D were tested against a collection of S. aureus and MSSP strains (Table S2).
# as §1
# S. pseudintermedius = assay: MIC against canine clinical S. pseudintermedius strains (Table S2); assay type: cell-based, Staphylococcus pseudintermedius
# Procedure: as §4, §1
# red blood cell (RBC) = settings: 0.5% RBC suspension in PBS, 1 h, 37 °C, read at 414 nm, normalized to mellitin and PBS, triplicates
# Procedure: Briefly, 75 µL of peptide in PBS was mixed with 75 µL of a 0.5% red blood cell (RBC) suspension in PBS, and incubated for 1 h at 37 °C. The hemoglobin release was then measured at 414 nm and normalized, using mellitin as positive control and PBS as negative control. Experiments were done in triplicates.
smiles,measurement,setting,value
CCCC[C@@H](NC(=O)[C@@H](CCCCN)NC(=O)[C@@H](Cc1cccc2ccccc12)NC(=O)[C@@H](CCCCN)NC(=O)[C@@H](Cc1ccccc1)NC(=O)[C@@H](Cc1cccc2ccccc12)NC(=O)[C@@H](CCCCN)NC(=O)[C@H](N)CCCCN)C(N)=O [D2D] (H-[dK][dK][d1Nal][dF][dK][d1Nal][dK][dNle]-NH2),MIC MSSP,[1],1 to 4 µg/mL
same,MIC MRSP,[2],4 µg/mL
same,MIC SA,[3],4 µg/mL
same,MIC Enterococcus faecium,[4],4 µg/mL
same,MIC PA,[5],4 µg/mL
same,MIC E. coli,"E. coli, 30235",4 µg/mL
same,MICs against canine P. aeruginosa isolates,[6],4 µg/mL
same,inhibition of DNA biosynthesis rate,[7],37%
same,effect on (inhibition of) cell wall synthesis,[8],39%
same,"growth curve, change of cell optical density over time",MRSP ST71 strain E104,cell lysis
same,MIC S. aureus 25054,"S. aureus; 25054, 8 G6, dog, wound, 2009",2 µg/mL
same,MIC S. aureus 27266,"S. aureus; 27266, 16 G9, dog, skin, 2010",2 µg/mL
same,MIC S. aureus 28264,"S. aureus; 28264, 20 B1, dog, wound, 2011",4 µg/mL
same,MIC S. aureus 30935,"S. aureus; 30935, 24 B9, dog, joint, 2013",2 µg/mL
same,MIC S. aureus 36968,"S. aureus; 36968, 61 A9, dog, wound, 2016",4 µg/mL
same,MIC S. aureus 37595,"S. aureus; 37595, 65 D2, dog, joint, 2016",2 µg/mL
same,MIC S. aureus 37708-2,"S. aureus; 37708-2, 66 C6, dog, skin, 2016",4 µg/mL
same,MIC S. aureus 38200,"S. aureus; 38200, 68 E9, dog, skin, 2016",2 µg/mL
same,MIC S. aureus 38565-1,"S. aureus; 38565-1, 70 A5, dog, skin, 2017",2 µg/mL
same,MIC S. aureus 38841,"S. aureus; 38841, 70 G5, dog, urine, 2017",4 µg/mL
same,MIC S. pseudintermedius 22963,"S. pseudintermedius; 22963, 3 B9, dog, ?, 2007",2 µg/mL
same,MIC S. pseudintermedius 26071,"S. pseudintermedius; 26071, 11 E5, dog, skin, 2009",1 µg/mL
same,MIC S. pseudintermedius 26092-2,"S. pseudintermedius; 26092-2, 11 E4, dog, skin, 2009",1 µg/mL
same,MIC S. pseudintermedius 26959,"S. pseudintermedius; 26959, 15 F8, dog, wound, 2010",2 µg/mL
same,MIC S. pseudintermedius 27364,"S. pseudintermedius; 27364, 17 A7, dog, wound, 2011",2 µg/mL
same,MIC S. pseudintermedius 27382,"S. pseudintermedius; 27382, 17 B8, dog, ear, 2011",2 µg/mL
same,MIC S. pseudintermedius 31524,"S. pseudintermedius; 31524, 54 C3, dog, ear, 2013",2 µg/mL
same,MIC S. pseudintermedius 33228,"S. pseudintermedius; 33228, 55 E2, dog, skin, 2014",2 µg/mL
same,MIC S. pseudintermedius 35890,"S. pseudintermedius; 35890, 59 B8, dog, ear, 2015",2 µg/mL
same,MIC S. pseudintermedius 37526-1,"S. pseudintermedius; 37526-1, 65 B4, dog, skin, 2016",2 µg/mL
same,MIC S. pseudintermedius 37535-1,"S. pseudintermedius; 37535-1, 65 B6, dog, skin, 2016",2 µg/mL
same,MIC S. pseudintermedius 38637,"S. pseudintermedius; 38637, 70 C3, dog, wound 2017",2 µg/mL
same,MIC S. pseudintermedius 38820,"S. pseudintermedius; 38820, 70 F9, dog, urine 2017",2 µg/mL
same,"HA, percentage of hemolysis at 150 µM",red blood cell (RBC),35%
